Literature values as cited in PMC9653884, “Bisindolylmaleimides New Ligands of CaM Protein” (Molecules, 2022).

Molecular target: CaM
Conditions: read-out: Kd of reported CaM inhibitor

| SMILES | Kd |
| --- | --- |
| CN(C)CCCN1c2ccccc2CCc2ccccc21 [Imipramine] | 14 µM |
| CC[C@]1(O)C[C@@H]2CN(CCc3c([nH]c4ccccc34)[C@@](C(=O)OC)(c3cc4c(cc3OC)N(C)[C@@H]3[C@]45CCN4CC=C[C@@](CC)(C[C@@]36OC(=O)N(CCCl)C6=O)[C@H]45)C2)C1 [KAR-2] | 5 µM |
| NCCc1c[nH]c2ccc(O)cc12 [Serotonin] | 0.71 µM |
| NCCCCCCNS(=O)(=O)c1cccc2c(Cl)cccc12 [W7] | 7 µM |
